Experimental data as given in publication PMC7766327, “Inhibition of Pneumolysin Cytotoxicity by Hydrolysable Tannins” (Antibiotics, 2020).
Like-named read-outs stand apart in the source and are kept apart here.

Molecular target: T1, pneumolysin (Ply) (Streptococcus pneumoniae serotype 2, UniProt Q04IN8)
T1 construct: made in house; host or cells: E. coli BL21(DE3)
Test: cell-based
Type: cell-based
Settings: for IC50: estimated from the inhibition curves, two-fold dilutions of tannins
Experimental: Native human erythrocytes were taken into EDTA tubes. The erythrocytes were washed three times with PBS (0.15 M NaCl, 2.7 mM KCl, 8.1 mM Na2HPO4 and 1.5 mM KH2PO4) by centrifugation at 700× g for 10 min. The purified erythrocytes were stored at +4 °C. Erythrocytes (1% v/v) in PBS were mixed with 1 nM Ply and dilution series of polyphenol inhibitors in 96-well microtiter plates. The reaction was incubated for 30 min at 37 °C. The plates were centrifuged, and the supernatant was pipetted into flat-bottomed microtiter plates to measure the absorbance at 570 nm (VICTOR X4, PerkinElmer, Turku, Finland) of the released hemoglobin from lysed erythrocytes. The absorbances of triplicate measurements are presented as a function of inhibitor concentration. The IC50 values were calculated with Origin data analysis software (2016, OriginLab Corporation, Northampton, MA, USA).

[1] = IC50 (screening with hemolysis assays)
[2] = read-out: IC50 (screening with hemolysis assays)

T1 sequence (Q04IN8 whole entry): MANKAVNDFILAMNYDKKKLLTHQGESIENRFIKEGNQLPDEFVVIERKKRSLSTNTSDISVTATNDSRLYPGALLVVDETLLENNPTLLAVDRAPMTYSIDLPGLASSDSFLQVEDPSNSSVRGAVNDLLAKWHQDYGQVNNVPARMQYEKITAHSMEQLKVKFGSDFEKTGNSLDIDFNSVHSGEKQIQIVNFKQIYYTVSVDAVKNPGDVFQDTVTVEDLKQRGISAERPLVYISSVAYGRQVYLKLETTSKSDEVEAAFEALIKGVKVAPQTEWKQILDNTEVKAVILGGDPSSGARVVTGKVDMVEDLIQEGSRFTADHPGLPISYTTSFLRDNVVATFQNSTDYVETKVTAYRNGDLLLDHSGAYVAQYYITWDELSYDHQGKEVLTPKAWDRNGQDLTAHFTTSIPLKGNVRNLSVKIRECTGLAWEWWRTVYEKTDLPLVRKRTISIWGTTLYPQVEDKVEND

For O=C(OC1COC(=O)c2cc(O)c(O)c(O)c2-c2c(cc(O)c(O)c2O)C(=O)OC1C1OC(=O)c2cc(O)c(O)c(O)c2-c2c(O)c(O)c(O)c3c2C(=O)OC1C3O)c1cc(O)c(O)c(O)c1 (stereo not shown) [Stachyurin], the IC50 [1] was greater than 100 nM.

O=C1OC[C@H]2OC(O)[C@@H]3OC(=O)c4cc(O)c(O)c(O)c4-c4c(cc(O)c(O)c4O)C(=O)O[C@H]3[C@@H]2OC(=O)c2cc(O)c(O)c(O)c2-c2c1cc(O)c(O)c2O (stereo partly shown) [Pedunculagin] was tested, and the IC50 [1] was greater than 100 nM.

O=C(OC1OC2COC(=O)c3cc(O)c(O)c(O)c3-c3c(cc(O)c(O)c3O)C(=O)OC2C2OC(=O)c3cc(O)c(O)c(O)c3-c3c(cc(O)c(O)c3O)C(=O)OC12)c1cc(O)c(O)c(Oc2c(O)c(O)c(O)c3c2C(=O)OC2C(COC(=O)c4cc(O)c(O)c(O)c4-3)OC(OC(=O)c3cc(O)c(O)c(Oc4c(O)c(O)c(O)c5c4C(=O)OC4C(COC(=O)c6cc(O)c(O)c(O)c6-5)OC(OC(=O)c5cc(O)c(O)c(O)c5)C5OC(=O)c6cc(O)c(O)c(O)c6-c6c(cc(O)c(O)c6O)C(=O)OC45)c3)C3OC(=O)c4cc(O)c(O)c(O)c4-c4c(cc(O)c(O)c4O)C(=O)OC23)c1 (stereo not shown) [Lambertianin C] gave an IC50 [2] of 20 nM.

O=C(O)C[C@@H]1C(=O)O[C@H]2[C@@H]3OC(=O)c4cc(O)c(O)c(O)c4-c4c(cc(O)c(O)c4O)C(=O)OC[C@H]2O[C@@H](OC(=O)c2cc(O)c(O)c(O)c2)[C@@H]3OC(=O)c2cc(O)c(O)c3c2[C@H]1[C@H](O)C(=O)O3 [Chebulagic acid] was tested, and the IC50 [1] was greater than 100 nM.

For O=C1O[C@H]2[C@@H]3OC(=O)c4cc(O)c(O)c(O)c4-c4c(O)c(O)c5oc(=O)c6c(c(O)c(O)c7oc(=O)c4c5c76)-c4c(cc(O)c(O)c4O)C(=O)OC[C@H]3OC(O)[C@@H]2OC(=O)c2cc(O)c(O)c(O)c2-c2c1cc(O)c(O)c2O (mixture of isomers) [Punicalagin], the IC50 [1] was 60 nM.

O=C(OC1OC2COC(=O)c3cc(O)c(O)c(O)c3-c3c(cc(O)c(O)c3O)C(=O)OC2C2OC(=O)c3cc(O)c(O)c(O)c3-c3c(cc(O)c(O)c3O)C(=O)OC12)c1cc(O)c(O)c(Oc2c(O)c(O)c(O)c3c2C(=O)OC2C(COC(=O)c4cc(O)c(O)c(O)c4-3)OC(OC(=O)c3cc(O)c(O)c(O)c3)C3OC(=O)c4cc(O)c(O)c(O)c4-c4c(cc(O)c(O)c4O)C(=O)OC23)c1 (stereo not shown) [Sanguiin H-6] gave an IC50 [2] of 20 nM.

In the case of O=C(OC1OC2COC(=O)c3cc(O)c(O)c(O)c3-c3c(cc(O)c(O)c3O)C(=O)OC2C2OC(=O)c3cc(O)c(O)c(O)c3-c3c(cc(O)c(O)c3O)C(=O)OC12)c1cc(O)c(O)c(Oc2c(C(=O)OC3OC4COC(=O)c5cc(O)c(O)c(O)c5-c5c(cc(O)c(O)c5O)C(=O)OC4C4OC(=O)c5cc(O)c(O)c(O)c5-c5c(cc(O)c(O)c5O)C(=O)OC34)cc(O)c(O)c2O)c1 (stereo not shown) [Agrimoniin], the IC50 [2] is reported as 30 nM.

Work on O=C1OC[C@H]2OC(=O)c3cc(O)c(O)c(O)c3-c3c(O)c(O)c(O)c4c3C(=O)O[C@H]([C@H]3OC(=O)c5c-4c(O)c(O)c(O)c5[C@H]3O)[C@@H]2OC(=O)c2cc(O)c(O)c(O)c2-c2c1cc(O)c(O)c2O [Castalagin] yielded an IC50 [1] of 80 nM.

In the case of O=C(OC1O[C@@H]2COC(=O)c3cc(O)c(O)c(O)c3-c3c(cc(O)c(O)c3O)C(=O)O[C@H]2[C@H](OC(=O)c2cc(O)c(O)c(O)c2)[C@H]1OC(=O)c1cc(O)c(O)c(O)c1)c1cc(O)c(O)c(O)c1 (stereo partly shown) [Tellimagrandin II], the “Inhibitor class in hemolysis inhibition assay” value is reported as “potent (key: negative or weak inhibitors (IC50 ≥ 100 nM); moderate inhibitors (IC50 40–90 nM); potent inhibitors (IC50 10–30 nM))” and the IC50 [1] is reported as 10 nM.

O=C1O[C@H]2[C@@H]3OC(=O)c4cc(O)c(O)c(O)c4-c4c(cc(O)c(O)c4O)C(=O)OC[C@H]2O[C@@H](OC(=O)c2cc(O)c(O)c(O)c2)[C@@H]3OC(=O)c2cc(O)c(O)c3c2[C@@H]2C1=CC(=O)[C@](O)(O3)C2(O)O [Geraniin] showed an IC50 [1] of 100 nM.

O=C(O[C@@H]1O[C@@H]2COC(=O)c3cc(O)c(O)c(O)c3-c3c(cc(O)c(O)c3O)C(=O)O[C@H]2[C@@H]2OC(=O)c3cc(O)c(O)c(O)c3-c3c(cc(O)c(O)c3O)C(=O)O[C@@H]12)c1cc(O)c(O)c(O)c1 [Casuarictin] gave an IC50 [1] of 40 nM.

Work on O=C(O[C@@H]1O[C@H](CO)[C@@H](O)[C@H](O)[C@H]1O)c1cc(O)c(O)c(O)c1 [1-O-galloyl-β-D-glucose] yielded an IC50 [1] greater than 100 nM.
